In experiment [1] the target is T1, BRAFV600E full-length (amino acids 2-766) (Homo sapiens, UniProt P15056, V600E).
T1 construct: His6-tagged BRAFV600E full-length (amino acids 2-766); His6; made in house; host or cells: baculovirus expression system (insect cells)
The experiment can be described thus: B-Raf Accelerated MEK ATPase assay (BRAMA). The experiment is classed as biochemical. The conditions noted are these: categorized. The procedure, abridged:
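Coupled-enzyme readout: ADP generated by MEK-mediated ATP hydrolysis, uncoupled from ERK phosphorylation, is linked to NADH oxidation through pyruvate kinase and lactate dehydrogenase.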

For experiment [2], the system named is Human colon tumor cells (Colo205). Description: Cell growth inhibition assay (CellTiter-Glo), Colo205. The experiment is classed as cell-based. The procedure, abridged:
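Read-out was CellTiter-Glo luminescence (total ATP as a cell-number surrogate), expressed as % inhibition against DMSO vehicle wells. Before that, cells grown in RPMI/10% FBS were treated for 3 days at 37 °C with ten 1:3-spaced compound concentrations, final DMSO 0.2%.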
Background: In ATP-based viability assays light output follows the ATP content of the culture.

In experiment [3] the test system is Human melanoma cancer cells (SK-MEL-28). The experiment can be described thus: Cell growth inhibition assay (CellTiter-Glo), SK-MEL-28. The experiment is classed as cell-based.
In another experiment the test system is pERK (pERK/tERK). The experiment can be described thus: Pharmacodynamic effect, pERK/tERK in A375P F11s xenograft tumors. The experiment is classed as in vivo, mice. The conditions noted are these: Mus musculus, read-out: inhibition of pERK (pERK/tERK). The procedure:
Animals were housed in pathogen free conditions and handled with aseptic technique. […] Detached cells were collected, centrifuged (1500 rpm, 5 min, 4° C.) and rinsed to remove the trypsin solution. Cells were resuspended in PBS without magnesium or calcium and counted. Cells were spun as previously to remove PBS and a single cell suspension was created either in 50% Matrigel: 50% PBS (v:v) or 100% PBS so that a 100 μL subcutaneous injection would deliver the required number of cells per mouse. The A375P F11s melanoma line was injected with Matrigel at 4 million cells per mouse. Tumors were established (˜150-300 mm^3) for all cell lines within 2-4 weeks post-injection.
At 2 h following oral administration of compound mice were euthanized using carbon dioxide. Tumors were carefully excised, homogenized using Medimachine (BD Bioscience) with 1 ml of lysis buffer (25 mM Tris-HCl (pH 7.5), 2 mM EDTA (pH 8.0), 2 mM EGTA (pH 8.0), 1% Triton X-100, 0.1% SDS, 50 mM Na—B—PO4, 2 mM NaVO4, 4 mM Na-Pyr-PO4, 2× phosphatase inhibitor cocktail. Crude homogenate was transferred to a 12 ml polypropylene tube containing 1.5 ml of lysis buffer and kept on ice. Following homogenization of all samples, 1 ml of homogenate was transferred to an eppendorf tube and centrifuged at 14,000 rpm for 15 min at 4° C. Five hundred microliter of clarified lysate was transferred to a new tube, flash frozen and processed for quantitation of pERK and tERK using western blot or Elisa (MSD) assays. […] BioRad dye was added to BSA dilutions and diluted test lysates. […] Comparison to the standard curve provides a relative measurement of protein concentration. […] The gels were transferred onto nitro-cellulose membranes using the iBlot transfer apparatus, which were then blocked and incubated with different primary antibodies overnight at 4° C. Western blots dually probed against pERK and tERK were scanned using LI-COR Odyssey® reader. A ratio of the immunofluorescent density obtained for pERK/tERK is calculated and expressed as a ratio (in percentage) to control untreated samples. For determination of pERK/tERK ratio by ELISA, MesoScale Discovery (MSD) (cat# K15107) plate were used according to manufacturer's instructions. In brief, MSD plates were block with 150 μl/well of blocking buffer for 1 hr before being washed 4 times with 200 μl of washing buffer. Thirty microliter (30 μl) of serially diluted samples was added to wells and plates were incubated overnight at 4° C. under slow agitation (˜500 rpm). Plates were washed 4 times in 200 μl 1× Tris wash buffer and 25 μl detection antibody solution was added to all wells and incubated at room temperature for 1 hr (˜500 rpm). Plates were washed 4 times in 200 μl wash buffer and 150 μl of read buffer was added to all wells. Plates were read on MSD.SI6000. In this assay vehicle and compound treated samples were tested at 4 different dilutions to allow linear range coverage of the assay. From pERK and tERK signal, background (BSA signal) was subtracted and ratio of pERK/tERK determined and normalized to untreated vehicle samples, arbitrarily set at 100%.

Setting [4] is: B-Raf Activity, Table 1a, highest pIC50 for the one or more runs.
The mark [5] stands for this setting: B-Raf pIC50, Table 1b, later runs, average pIC50 for the one or more runs.
Setting [6] is: COLO 205, 72 h, Table 2a, 3 days incubation, read-out: Activity in Colo205 Tumor Cells.
Where [7] appears, read: COLO 205, Table 2b, later runs, average for the one or more runs, categorized, read-out: IC50 for Colo205.
Setting [8] is: SK-MEL-28, 72 h, Table 3a, 3 days incubation, read-out: Activity in SK-MEL-28 Tumor Cells.
[9] abbreviates: SK-MEL-28, Table 3b, later runs, average for the one or more runs, categorized, read-out: IC50 for SK-MEL-28.
Where [10] appears, read: A375P F11s xenograft tumors, single oral dose of 100 mg/kg, 2 h after administration.
The mark [11] stands for this setting: Table 1b, later runs, average pIC50 for the one or more runs, read-out: B-Raf pIC50 (converted).

Structures can show the parent of a compound that is named as a salt. Where two headings read alike, the source gives them in different places. A value given as a limit tells only on which side of the number the result lay.

This note sets out measurements from patent publication US7994185B2, “Benzene sulfonamide thiazole and oxazole compounds” (Glaxo Smith Kline LLC, priority 2008, dated 2011).

T1 sequence (P15056 2-766 V600E): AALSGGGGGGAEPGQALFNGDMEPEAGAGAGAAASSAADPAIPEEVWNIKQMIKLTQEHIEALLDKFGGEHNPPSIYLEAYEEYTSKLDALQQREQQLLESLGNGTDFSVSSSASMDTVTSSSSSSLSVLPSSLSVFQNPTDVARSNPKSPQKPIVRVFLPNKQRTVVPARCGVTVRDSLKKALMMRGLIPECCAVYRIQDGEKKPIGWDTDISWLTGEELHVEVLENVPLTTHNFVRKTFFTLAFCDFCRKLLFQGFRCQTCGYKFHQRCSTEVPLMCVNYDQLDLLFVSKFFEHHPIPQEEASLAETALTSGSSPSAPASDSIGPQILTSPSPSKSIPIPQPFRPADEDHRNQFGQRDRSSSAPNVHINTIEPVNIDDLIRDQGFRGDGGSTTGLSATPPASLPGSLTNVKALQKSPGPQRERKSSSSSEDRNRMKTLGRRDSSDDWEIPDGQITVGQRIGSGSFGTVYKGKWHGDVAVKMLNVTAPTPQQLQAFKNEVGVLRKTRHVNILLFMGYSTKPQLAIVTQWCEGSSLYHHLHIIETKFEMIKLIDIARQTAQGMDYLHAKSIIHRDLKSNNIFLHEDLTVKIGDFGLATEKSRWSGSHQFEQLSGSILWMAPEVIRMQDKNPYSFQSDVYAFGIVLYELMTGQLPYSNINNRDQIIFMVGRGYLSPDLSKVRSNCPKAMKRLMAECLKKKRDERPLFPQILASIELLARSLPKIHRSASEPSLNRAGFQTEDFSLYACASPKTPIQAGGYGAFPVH

For `Nc1nccc(-c2sc(N3CCOCC3)nc2-c2cccc(NS(=O)(=O)c3ccco3)c2Cl)n1` [Example 24, N-{3-[5-(2-Amino-4-pyrimidinyl)-2-(4-morpholinyl)-1,3-thiazol-4-yl]-2-chlorophenyl}-2-furansulfonamide], the IC50 in experiment [1] (setting [4]) is less than 100 nM; in experiment [1] (setting [5]), no more than 3.16 nM; in experiment [2] (setting [6]), less than 100 nM; in experiment [2] (setting [7]) it was 100 to 1000 nM; in experiment [3] (setting [8]), less than 100 nM; in experiment [3] (setting [9]), 100 to 1000 nM. Also, the inhibition at 100 mg/kg in the experiment with pERK (pERK/tERK) (setting [10]) is no less than 30%.
As to `Cc1nccc(-c2sc(C3CCOCC3)nc2-c2cccc(NS(=O)(=O)c3c(F)cccc3F)c2Cl)n1` [Example 25, N-{2-Chloro-3-[5-(2-methyl-4-pyrimidinyl)-2-(tetrahydro-2H-pyran-4-yl)-1,3-thiazol-4-yl]phenyl}-2,6-difluorobenzenesulfonamide trifluoroacetate], the IC50 is less than 100 nM in experiment [1] (setting [4]); 3.16 to 31.6 nM in experiment [1] (setting [11]); 100 to 1000 nM in experiment [2] (setting [6]); 100 to 1000 nM in experiment [2] (setting [7]); less than 100 nM in experiment [3] (setting [8]); less than 100 nM in experiment [3] (setting [9]). Further, in the experiment with pERK (pERK/tERK) (setting [10]), the inhibition at 100 mg/kg was no less than 30%.
Regarding `O=S(=O)(Nc1cccc(-c2nc(C3CCOCC3)sc2-c2ccncn2)c1Cl)c1c(F)cccc1F` [Example 26, N-{2-Chloro-3-[5-(4-pyrimidinyl)-2-(tetrahydro-2H-pyran-4-yl)-1,3-thiazol-4-yl]phenyl}-2,6-difluorobenzenesulfonamide], the IC50 in experiment [1] (setting [4]) was less than 100 nM; in experiment [1] (setting [5]), no more than 3.16 nM; in experiment [2] (setting [6]) it was less than 100 nM; in experiment [2] (setting [7]), less than 100 nM; in experiment [3] (setting [8]), less than 100 nM; in experiment [3] (setting [9]), less than 100 nM. Moreover, the inhibition at 100 mg/kg with pERK (pERK/tERK) (setting [10]) was no less than 30%.
Regarding `CC(C)(C)c1nc(-c2cccc(NS(=O)(=O)c3c(F)cccc3F)c2F)c(-c2ccnc(N)n2)s1` [Example 58, N-{3-[5-(2-amino-4-pyrimidinyl)-2-(1,1-dimethylethyl)-1,3-thiazol-4-yl]-2-fluorophenyl}-2,6-difluorobenzenesulfonamide], the IC50 in experiment [2] (setting [6]) and in experiment [3] (setting [8]) was less than 100 nM each time. The inhibition at 100 mg/kg in the experiment with pERK (pERK/tERK) (A375P, po, 2 h) was no less than 30%.
With `Nc1nccc(-c2sc(N3CCOCC3)nc2-c2cccc(NS(=O)(=O)c3c(F)cccc3F)c2F)n1` [Example 59, N-{3-[5-(2-Amino-4-pyrimidinyl)-2-(4-morpholinyl)-1,3-thiazol-4-yl]-2-fluorophenyl}-2,6-difluorobenzenesulfonamide], the IC50 in experiment [1] (setting [4]) is less than 100 nM; in experiment [1] (setting [11]), 3.16 to 31.6 nM; in experiment [2] (setting [6]), 100 to 1000 nM; in experiment [2] (setting [7]), 100 to 1000 nM; in experiment [3] (setting [8]) it was 100 to 1000 nM; in experiment [3] (setting [9]), 100 to 1000 nM. The inhibition at 100 mg/kg in the experiment on pERK (pERK/tERK) (setting [10]) was no less than 30%.
As to `Nc1nccc(-c2sc(C3CCOCC3)nc2-c2cccc(NS(=O)(=O)c3c(F)cccc3F)c2F)n1` [Example 64, N-{3-[5-(2-amino-4-pyrimidinyl)-2-(tetrahydro-2H-pyran-4-yl)-1,3-thiazol-4-yl]-2-fluorophenyl}-2,6-difluorobenzenesulfonamide], the IC50 was less than 100 nM in experiment [1] (setting [4]); no more than 3.16 nM in experiment [1] (setting [5]); less than 100 nM in experiment [2] (setting [6]); less than 100 nM in experiment [2] (setting [7]); less than 100 nM in experiment [3] (setting [8]); less than 100 nM in experiment [3] (setting [9]). The inhibition at 100 mg/kg in the experiment on pERK (pERK/tERK) (setting [10]) is no less than 30%.
For `Cc1nccc(-c2sc(C(C)(C)C)nc2-c2cccc(NS(=O)(=O)c3cc(F)ccc3F)c2F)n1` [Example 65, N-{3-[2-(1,1-dimethylethyl)-5-(2-methyl-4-pyrimidinyl)-1,3-thiazol-4-yl]-2-fluorophenyl}-2,5-difluorobenzenesulfonamide], the IC50 is less than 100 nM in experiment [1] (setting [4]); no more than 3.16 nM in experiment [1] (setting [5]); less than 100 nM in experiment [2] (setting [6]); less than 100 nM in experiment [2] (setting [7]); less than 100 nM in experiment [3] (setting [8]); less than 100 nM in experiment [3] (setting [9]). Further, the inhibition at 100 mg/kg in the experiment on pERK (pERK/tERK) (setting [10]) was no less than 30%.
As to `CC(C)(C)c1nc(-c2cccc(NS(=O)(=O)c3cc(F)ccc3F)c2F)c(-c2ccncn2)s1` [Example 66, N-{3-[2-(1,1-Dimethylethyl)-5-(4-pyrimidinyl)-1,3-thiazol-4-yl]-2-fluorophenyl}-2,5-difluorobenzenesulfonamide], the IC50 in experiment [1] (setting [4]) was less than 100 nM; in experiment [1] (setting [5]), no more than 3.16 nM; in experiment [2] (setting [6]), less than 100 nM; in experiment [2] (setting [7]) it was less than 100 nM; in experiment [3] (setting [8]) it was less than 100 nM; in experiment [3] (setting [9]), less than 100 nM. In the experiment on pERK (pERK/tERK) (setting [10]), the inhibition at 100 mg/kg is no less than 30%.
For `Cn1ccc(S(=O)(=O)Nc2cccc(-c3nc(C(C)(C)C)sc3-c3ccnc(N)n3)c2F)c1` [Example 284, N-{3-[5-(2-amino-4-pyrimidinyl)-2-(1,1-dimethylethyl)-1,3-thiazol-4-yl]-2-fluorophenyl}-1-methyl-1H-pyrrole-3-sulfonamide hydrochloride], the IC50 in experiment [1] (setting [5]) lay within 31.6 to 1000 nM; in experiment [2] (setting [7]), 100 to 1000 nM; in experiment [3] (setting [9]) it was 100 to 1000 nM.
In the case of `Cn1ccc(S(=O)(=O)Nc2cccc(-c3nc(C4CCOCC4)sc3-c3ccnc(N)n3)c2F)c1` [Example 285, N-{3-[5-(2-amino-4-pyrimidinyl)-2-(tetrahydro-2H-pyran-4-yl)-1,3-thiazol-4-yl]-2-fluorophenyl}-1-methyl-1H-pyrrole-3-sulfonamide hydrochloride], the IC50 was in the range of 31.6 to 1000 nM in experiment [1] (setting [5]), 100 to 1000 nM in experiment [2] (setting [7]) and 1000 to 10000 nM in experiment [3] (setting [9]).
For the compound `Cn1cc(S(=O)(=O)Nc2cccc(-c3nc(C4CCOCC4)sc3-c3ccnc(N)n3)c2F)cn1` [Example 286, N-{3-[5-(2-amino-4-pyrimidinyl)-2-(tetrahydro-2H-pyran-4-yl)-1,3-thiazol-4-yl]-2-fluorophenyl}-1-methyl-1H-pyrazole-4-sulfonamide hydrochloride], the figures for the IC50 in experiment [1] (setting [11]), in experiment [2] (setting [7]) and in experiment [3] (setting [9]) were 3.16 to 31.6 nM, 100 to 1000 nM and 100 to 1000 nM, respectively.
Regarding `Cn1ccnc1S(=O)(=O)Nc1cccc(-c2nc(C(C)(C)C)sc2-c2ccnc(N)n2)c1F` [Example 287, N-{3-[5-(2-amino-4-pyrimidinyl)-2-(1,1-dimethylethyl)-1,3-thiazol-4-yl]-2-fluorophenyl}-1-methyl-1H-imidazole-2-sulfonamide hydrochloride], the IC50 in experiment [1] (setting [11]) was 3.16 to 31.6 nM; in experiment [2] (setting [7]), 100 to 1000 nM; in experiment [3] (setting [9]) it was 100 to 1000 nM.
Regarding `CC(C)(CO)c1nc(-c2cccc(NS(=O)(=O)c3c(F)cccc3F)c2F)c(-c2ccnc(N)n2)s1` [Example 295, N-{3-[5-(2-amino-4-pyrimidinyl)-2-(2-hydroxy-1,1-dimethylethyl)-1,3-thiazol-4-yl]-2-fluorophenyl}-2,6-difluorobenzenesulfonamide], the IC50 was no more than 3.16 nM in experiment [1] (setting [5]), less than 100 nM in experiment [2] (setting [7]) and less than 100 nM in experiment [3] (setting [9]).
